Source: ChEMBL document CHEMBL5505981, “Design, synthesis and biological evaluation of novel 1,2,4a,5-tetrahydro-4H-benzo[b][1,4]oxazino[4,3-d][1,4]oxazine-based AAK1 inhibitors with anti-viral property against SARS-CoV-2” (Eur J Med Chem, 2024)

Legend:
[1] = Cytotoxicity against human Huh7.5 cells; type: toxicity, cell-based, Huh-7.5
[2] = tested on: HEK293; type: toxicity, cell-based; conditions: human, hek293, 48 h, 20 µM
[3] = Cytotoxicity against human Huh-7 cells; type: toxicity, cell-based
[4] = tested on: HEK293; type: toxicity, cell-based; conditions: human, hek293, 48 h, 6 µM
[5] = tested on: Dengue virus; test: Antiviral activity against DENV infected in human Huh-7 cells; type: functional, organism-based
[6] = tested on: Ebolavirus; test: Antiviral activity against EBOV; type: functional, organism-based; conditions: Orthoebolavirus
[7] = biological target: T1, AP2-associated protein kinase 1 (Homo sapiens, UniProt Q2M2I8); type: cell-based
[8] = tested on: HEK293; type: toxicity, cell-based; conditions: human, hek293, 48 h, 30 µM
[9] = biological target: T1, AP2-associated protein kinase 1; test: Inhibition of AAK1 (unknown origin)

T1 sequence (Q2M2I8 whole entry): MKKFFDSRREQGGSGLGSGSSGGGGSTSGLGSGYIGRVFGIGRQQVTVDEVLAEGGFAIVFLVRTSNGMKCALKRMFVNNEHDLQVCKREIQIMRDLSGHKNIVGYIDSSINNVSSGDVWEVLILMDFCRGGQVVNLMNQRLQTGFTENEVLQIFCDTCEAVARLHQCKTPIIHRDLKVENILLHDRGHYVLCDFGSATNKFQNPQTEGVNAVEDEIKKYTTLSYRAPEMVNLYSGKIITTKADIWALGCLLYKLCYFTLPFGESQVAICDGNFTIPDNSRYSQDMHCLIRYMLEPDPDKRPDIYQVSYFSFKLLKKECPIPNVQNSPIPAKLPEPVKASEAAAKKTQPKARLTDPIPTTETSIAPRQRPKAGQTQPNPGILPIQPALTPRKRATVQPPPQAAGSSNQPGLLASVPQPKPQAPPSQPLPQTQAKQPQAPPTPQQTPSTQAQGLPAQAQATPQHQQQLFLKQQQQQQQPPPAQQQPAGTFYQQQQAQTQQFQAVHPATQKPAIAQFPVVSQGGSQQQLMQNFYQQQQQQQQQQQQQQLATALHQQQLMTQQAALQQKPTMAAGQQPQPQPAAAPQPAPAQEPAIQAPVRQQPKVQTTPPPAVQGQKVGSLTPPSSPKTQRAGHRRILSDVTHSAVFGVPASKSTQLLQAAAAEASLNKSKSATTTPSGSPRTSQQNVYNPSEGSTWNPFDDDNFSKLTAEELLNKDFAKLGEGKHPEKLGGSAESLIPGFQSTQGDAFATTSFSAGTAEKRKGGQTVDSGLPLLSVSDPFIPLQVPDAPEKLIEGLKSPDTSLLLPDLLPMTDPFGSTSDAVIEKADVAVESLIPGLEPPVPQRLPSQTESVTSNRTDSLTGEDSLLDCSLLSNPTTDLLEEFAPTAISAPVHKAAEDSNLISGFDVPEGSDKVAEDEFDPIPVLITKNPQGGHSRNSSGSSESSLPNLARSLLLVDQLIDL

SMILES: CCN(CC)CCNC(=O)c1c(C)[nH]c(/C=C2\C(=O)Nc3ccc(F)cc32)c1C [SUNITINIB]
- CC50 [1]: > 10000 nM
- Activity [2]: Non-Toxic
- CC50 [3]: 11500 nM

SMILES: C(#Cc1c[nH]c2ncc(-c3ccc4c(c3)OCC3COCCN43)cc12)c1cccnc1 (stereo not given)
- Activity [4]: Toxic

SMILES: N#Cc1ccc(-c2cnc3[nH]cc(NC(=O)c4cccnc4)c3c2)cc1
- EC50 [5]: 8000 nM
- CC50 [3]: > 50000 nM
- EC50 [6]: > 10000 nM

SMILES: COc1ccc(-c2cnc3[nH]cc(C#Cc4cccnc4)c3c2)cc1OC
- EC50 [5]: 720 nM
- IC50 [7]: 7.57 nM
- Activity [4]: Toxic

SMILES: CCN(CC)S(=O)(=O)Nc1cccc(-c2ccc3c(NC(=O)C4CC4)n[nH]c3c2)c1
- Activity [8]: Non-Toxic

SMILES: CC(C)C[C@](C)(N)COc1ccc(-c2ccnc(C(F)F)c2)nc1C(F)F [PILAVAPADIN]
- Activity [8]: Non-Toxic
- IC50 [9]: 1.2 nM

SMILES: NCCCC#Cc1c[nH]c2ncc(-c3ccc4c(c3)OCC3COCCN43)cc12 (stereo not given)
- IC50 [7]: > 500 nM

SMILES: C(#Cc1c[nH]c2ncc(-c3ccc4c(c3)OCC3COCCN43)cc12)c1ccccc1 (stereo not given)
- IC50 [7]: > 500 nM
